Results: the NIST ThermoML archive (doi:10.1021/je800145h)
Numbers after ± are expanded uncertainties. One block for each molecule: values may come before it.

Conditions: Liquid

Compound: CCO [ethanol]
vapor or sublimation pressure (329.62 K): 40 ± 0.42 kPa
vapor or sublimation pressure (335.99 K): 53.33 ± 0.46 kPa
vapor or sublimation pressure (341.2 K): 66.66 ± 0.55 kPa
vapor or sublimation pressure (345.6 K): 79.99 ± 0.65 kPa
vapor or sublimation pressure (349.42 K): 93.32 ± 0.71 kPa
vapor or sublimation pressure (350.82 K): 98.66 ± 0.76 kPa

Compound: CC(C)CO [2-methyl-1-propanol]
vapor or sublimation pressure (357.45 K): 40 ± 0.4 kPa
vapor or sublimation pressure (364.17 K): 53.33 ± 0.44 kPa
vapor or sublimation pressure (369.67 K): 66.66 ± 0.52 kPa
vapor or sublimation pressure (374.35 K): 79.99 ± 0.61 kPa
vapor or sublimation pressure (378.45 K): 93.32 ± 0.66 kPa
vapor or sublimation pressure (379.96 K): 98.66 ± 0.71 kPa

Compound: CC(C)(C)O [2-methylpropan-2-ol]
vapor or sublimation pressure (333.9 K): 40 ± 0.43 kPa
vapor or sublimation pressure (340.13 K): 53.33 ± 0.47 kPa
vapor or sublimation pressure (345.21 K): 66.66 ± 0.57 kPa
vapor or sublimation pressure (349.53 K): 79.99 ± 0.66 kPa
vapor or sublimation pressure (353.32 K): 93.32 ± 0.73 kPa
vapor or sublimation pressure (354.61 K): 98.66 ± 0.83 kPa

Compound: CCC(C)O (stereo unspecified) [butan-2-ol]
vapor or sublimation pressure (349.73 K): 40 ± 0.41 kPa
vapor or sublimation pressure (356.36 K): 53.33 ± 0.45 kPa
vapor or sublimation pressure (361.77 K): 66.66 ± 0.54 kPa
vapor or sublimation pressure (366.36 K): 79.99 ± 0.62 kPa
vapor or sublimation pressure (370.38 K): 93.32 ± 0.68 kPa
vapor or sublimation pressure (371.86 K): 98.66 ± 0.73 kPa

Compound: CCCCO [butan-1-ol]
vapor or sublimation pressure (366.76 K): 40 ± 0.38 kPa
vapor or sublimation pressure (373.74 K): 53.33 ± 0.42 kPa
vapor or sublimation pressure (379.43 K): 66.66 ± 0.51 kPa
vapor or sublimation pressure (384.26 K): 79.99 ± 0.59 kPa
vapor or sublimation pressure (388.49 K): 93.32 ± 0.64 kPa
vapor or sublimation pressure (390.04 K): 98.66 ± 0.69 kPa

Compound: CO [methanol]
vapor or sublimation pressure (315.75 K): 40 ± 0.42 kPa
vapor or sublimation pressure (322.15 K): 53.33 ± 0.46 kPa
vapor or sublimation pressure (327.34 K): 66.66 ± 0.56 kPa
vapor or sublimation pressure (331.73 K): 79.99 ± 0.65 kPa
vapor or sublimation pressure (335.57 K): 93.32 ± 0.71 kPa
vapor or sublimation pressure (336.98 K): 98.66 ± 0.76 kPa

Further lines, results first:

vapor or sublimation pressure (333.94 K): 40 ± 0.43 kPa
vapor or sublimation pressure (340.18 K): 53.33 ± 0.47 kPa
vapor or sublimation pressure (345.25 K): 66.66 ± 0.57 kPa
vapor or sublimation pressure (349.55 K): 79.99 ± 0.66 kPa
vapor or sublimation pressure (353.3 K): 93.32 ± 0.73 kPa
vapor or sublimation pressure (354.67 K): 98.66 ± 0.78 kPa
Compound: CC(C)O [propan-2-ol]

vapor or sublimation pressure (347.55 K): 40 ± 0.4 kPa
vapor or sublimation pressure (354.18 K): 53.33 ± 0.44 kPa
vapor or sublimation pressure (359.56 K): 66.66 ± 0.54 kPa
vapor or sublimation pressure (364.11 K): 79.99 ± 0.63 kPa
vapor or sublimation pressure (368.08 K): 93.32 ± 0.68 kPa
vapor or sublimation pressure (369.55 K): 98.66 ± 0.73 kPa
Compound: CCCO [propan-1-ol]

mass density (298.15 K, 101.33 kPa, Vibrating tube method): 879 ± 1 kg/m3
vapor or sublimation pressure (332.98 K): 40 ± 0.33 kPa
vapor or sublimation pressure (341.09 K): 53.33 ± 0.36 kPa
vapor or sublimation pressure (347.72 K): 66.66 ± 0.43 kPa
vapor or sublimation pressure (353.38 K): 79.99 ± 0.5 kPa
vapor or sublimation pressure (358.37 K): 93.32 ± 0.55 kPa
vapor or sublimation pressure (360.22 K): 98.66 ± 0.56 kPa
vapor or sublimation pressure (361.23 K): 101.32 ± 0.53 kPa
Compound: C1CCOCC1 [tetrahydropyran]
